Series [1] concerns GSK-3A (second line so named). Briefly: Off-target screening (CEREP). Format: biochemical, human. The following applies: 10 µM, duplicates. On the procedure: (§1) Supplementary Table 1 │ Off-target activity screening f or MCP compou nds […]
(§2) The assays given in the table above were conducted at Eurofins CEREP S A (Celle-Lévescault, France) and were run as single point measurements in duplicates in the presence of 10 µ M of the test compound and reported as percent inhibition of the radioligand signal or control enzymatic activity. n.d., not

The nature of series [2]: Human whole blood haemolysis assay. The following applies: human heparinated blood, 10 min 37 °C. On the procedure:
For the in vitro haemolysis test, blood was provided by Roche medical services through an anonymous blood donation for research program, approved by the Ethics Committee Northwestern Switzerland and Central Switzerland (EKNZ) and collected with informed consent. Blood was collected by venipuncture in ethylenediaminetetraacetic acid (EDTA) and Li-heparin-coated tubes. Plasma was prepared from anticoagulated blood by centrifugation (2,500g; 10 min; at room temperature) and the haematocrit was measured to ensure that it was within normal reference values. Each formulation of compound in saline was added at a concentration of 8 mg ml^−1 into test tubes containing exactly 0.5 ml of heparinated blood to give a final assay volume of 1 ml and a concentration of 4 mg ml^−1 or less (following further dilutions). After incubation in a water bath for 10 min at 37 °C, the tubes were centrifuged (10 min, 1,811g at room temperature) and 100 μl of the supernatant was subsequently transferred into test tubes containing 5 ml Drabkins solution (RANDOX Laboratories) and 1 ml phosphate buffer. Haemoglobin was photometrically determined at 540 nm according to the RANDOX test-kit instructions. The results were expressed as percentage haemolysis extrapolated from an internal standard curve with 0%, 50% and 100% haemolysed blood samples.

The next series deals with P. aeruginosa ATCC 27853. Briefly: microbe, parasite or virus in culture. The following applies: Pseudomonas aeruginosa, ATCC27853, CAMHB; mode of at least three replicates (RO7036668 one replicate). An outline of the steps: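 CLSI broth microdilution (M07/M100); inoculum from 0.5 McFarland suspension diluted in CAMHB; MIC = lowest concentration with no visible growth or where OD600 stops falling.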

The subject of the next series is HEK293 cells. Briefly: Cell-viability assay (CellTiterGlo). To be noted: Homo sapiens, 24 h, 37 °C, 3.125–100 μM, n = 2. Format: cell-based. Here is the method: Compounds were prepared in serial dilutions (3.125–100 μM in 1% DMSO) and transferred to 384-well plates together with a positive (Staurosporine) and a negative (no compound) control. In total, 25 μl of HEK293 cells (ATCC; verified by short tandem repeat PCR and mycoplasma negative) (50,000 cells per ml) were added in either low-serum-containing (0.5% fetal bovine serum (FBS)) or high-serum-containing (12.5% FBS, 1% BSA) medium (Dulbecco’s modified Eagle medium (DMEM), glucose, L-glutamine). The plates were incubated for 24 h at 37 °C and a mixture of CellTiterGlo and DMEM was added to the plates. After incubation at room temperature, the luminescence signal was read using a BioTeK reader and a calculated IC50 was derived from the data.

Series [3] can be described thus: Mouse pharmacokinetics study, i.v. bolus. The following applies: male CD1 mice, 1 mg/kg IV. The series is classed as in vivo. On the procedure:
Three male CD1 mice were administered with compound formulation (0.5 mg ml^−1 in 0.9% aqueous sodium chloride solution) as an intravenous bolus dose of 1 mg per kg. Blood was sampled at 0.08, 0.25, 0.5, 1, 2, 4, 7 and 24 h after administration and the blood collecting tubes were centrifuged for 5 min at 5,200g at room temperature to isolate the plasma supernatant. The concentrations of compound in the plasma were analysed using a liquid chromatography–mass spectrometry method with a calibration range of 5–10,000 ng ml^−1. The pharmacokinetic parameters were derived from the individual concentration data and were estimated by non-compartmental analysis.

Series [4] relates to Nicotinic receptor, muscle. Briefly: Off-target screening (CEREP). The series is classed as binding, human. The following applies: 10 µM, duplicates. On the procedure:
as §1, §2

Series [5] concerns Nicotinic receptor, neuronal. Briefly: Off-target screening (CEREP). Format: binding, human. The following applies: 10 µM, duplicates. On the procedure:
as §1, §2

The next series concerns C. albicans ATCC 90028. Briefly: microbe, parasite or virus in culture. The following applies: Candida albicans, ATCC90028.
In series [6] the test system is GABA Cl- channel receptor. Briefly: Off-target screening (CEREP). Format: binding, rat. To be noted: 10 µM, duplicates. On the procedure:
as §1, §2

In the next series the test system is PCP receptor. Nature of the series: Off-target screening (CEREP). Format: binding, rat. To be noted: 10 µM, duplicates. On the procedure: as §1, §2
Series [7] deals with Ca2+ channel (diltiazem site). Briefly: Off-target screening (CEREP). The following applies: 10 µM, duplicates. The series is classed as binding, rat. On the procedure: as §1, §2
Another series concerns the target hERG (Homo sapiens, UniProt Q12809). Briefly: hERG.
Series [8] deals with GABA-A (benzodiazapine binding site). Nature of the series: Off-target screening (CEREP). Further details: species or system rat. The following applies: 10 µM, duplicates. Here is the method:
as §1, §2

SMILES strings stand for the structures. A value given as a limit tells only on which side of the number the result lay.

hERG, sequence (Q12809 whole entry): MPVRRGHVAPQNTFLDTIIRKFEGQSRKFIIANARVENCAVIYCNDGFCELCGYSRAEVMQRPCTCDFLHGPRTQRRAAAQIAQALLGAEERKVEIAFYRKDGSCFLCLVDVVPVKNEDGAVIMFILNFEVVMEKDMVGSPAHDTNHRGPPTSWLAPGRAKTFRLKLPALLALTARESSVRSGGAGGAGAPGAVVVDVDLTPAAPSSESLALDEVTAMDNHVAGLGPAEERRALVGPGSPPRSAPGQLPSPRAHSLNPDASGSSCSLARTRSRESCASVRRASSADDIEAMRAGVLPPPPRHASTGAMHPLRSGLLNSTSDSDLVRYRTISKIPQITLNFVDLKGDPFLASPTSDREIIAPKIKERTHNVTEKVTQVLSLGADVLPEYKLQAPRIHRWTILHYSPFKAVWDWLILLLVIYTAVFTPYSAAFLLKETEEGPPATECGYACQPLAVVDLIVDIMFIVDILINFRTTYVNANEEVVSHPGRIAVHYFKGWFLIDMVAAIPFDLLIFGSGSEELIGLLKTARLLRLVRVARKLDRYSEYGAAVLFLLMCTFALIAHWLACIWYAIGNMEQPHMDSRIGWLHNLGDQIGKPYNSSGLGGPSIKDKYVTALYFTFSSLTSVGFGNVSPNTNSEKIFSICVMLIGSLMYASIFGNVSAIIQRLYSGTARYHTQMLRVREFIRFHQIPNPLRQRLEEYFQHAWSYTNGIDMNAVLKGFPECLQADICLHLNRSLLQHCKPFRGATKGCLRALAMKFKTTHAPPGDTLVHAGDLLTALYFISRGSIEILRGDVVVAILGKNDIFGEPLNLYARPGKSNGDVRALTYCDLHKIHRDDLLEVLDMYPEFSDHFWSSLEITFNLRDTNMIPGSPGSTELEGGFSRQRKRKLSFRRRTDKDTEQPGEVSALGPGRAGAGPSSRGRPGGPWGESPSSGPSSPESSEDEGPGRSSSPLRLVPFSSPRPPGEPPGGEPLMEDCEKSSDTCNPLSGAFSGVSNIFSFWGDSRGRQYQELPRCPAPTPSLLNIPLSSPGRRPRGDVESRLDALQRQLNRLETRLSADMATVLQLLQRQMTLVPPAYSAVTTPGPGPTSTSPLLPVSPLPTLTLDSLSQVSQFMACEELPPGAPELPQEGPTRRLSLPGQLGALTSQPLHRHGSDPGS

On to `CN1C(=O)[C@H](CCCCN)NC(=O)[C@H](CCCN)NCc2cccnc2Sc2c(Cl)ccc(-c3ccc(C(=O)O)cc3)c2CNC(=O)[C@@H]1Cc1c[nH]c2ccccc12` [RO7202110], for which the percent inhibition in [1] is listed as -6%; in series [4], 11%; in series [5] it was 4%; in series [6] it was -1%; in the series with PCP receptor, 9%; in series [7], 2%. The percent inhibition in series [8] is recorded as 14%. Moreover, the “Haemolysis” value in [2] is “None”. Also, the MIC in the series on P. aeruginosa ATCC 27853 and against C. albicans ATCC 90028 was more than 64 µg/mL throughout. Moreover, the IC50 with HEK293 cells was more than 100 µM; against hERG, more than 20 µM. In series [3] (n = 3), the Vss worked out at 0.9 L/kg. For the same compound, the “t1/2, terminal plasma half-life” value in [3] (n = 3) came to 12 min. In [3] (n = 3, LC-MS, non-compartmental), this compound registered a Cl of 84 mL/min/kg. Besides, the “hERG IC20” value at hERG was more than 10 µM.

The IC50 is the concentration at which inhibition is half-maximal. A lower IC50 goes with inhibition by little substance. Broadly, the Vss is a proportionality between amount in the body and measured concentration, not a real space. A low value points to little distribution into tissue.

The values are drawn from PMC10794144, “A novel antibiotic class targeting the lipopolysaccharide transporter” (Nature, 2024).
